These results are taken from patent publication US8871793B2, “Metaxalone cocrystals” (Nuformix Limited, priority 2009, dated 2014).

As a reminder, the Tmax is the time from dosing to the highest level. Broadly, the Cmax is the highest concentration seen after dosing. By AUC is commonly meant concentration integrated over time.

The nature of data set [1]: Pharmacokinetic study, oral capsule administration under fasted conditions in beagle dogs. Format: in vivo. The note with it: mean, male beagle dogs, equivalent metaxalone dosage of 21 mg/kg; for Tmax / AUC: plasma; for Cmax: plasma metaxalone by LC-MS/MS; for AUC: linear trapezoidal rule. On the procedure: The study was designed to compare the pharmacokinetic profiles of the 1:0.5 metaxalone fumaric acid (prepared as described in Example 2.7) and 1:0.5 metaxalone succinic acid cocrystals (prepared as described in Example 4.7) with that of the crystalline metaxalone following oral administration under fasted conditions at 21 mg/kg dose level in beagle dogs. A crossover study was carried out using 5 male beagle dogs with a washout period of 5 days between each treatment. Prior to dosing, the dogs were fasted overnight, weighed and then this weight was used to load capsules with each test compound at an equivalent metaxalone dosage of 21 mg/kg. The capsules were orally administered to the dogs followed by about 10 mL of water. Food was provided 4 hours post-dose to all animals.
Blood samples were collected at pre-dose, 10, 20 and 30 minutes, and 1, 2, 3, 4, 6, 8, 12 and 24 hour post-dose (12 time points) following oral dose administration. Approximately 0.8 ml of whole blood was withdrawn from the cephalic vein and placed in labelled tubes containing K2 EDTA as anticoagulant ([…] of 200 mM K2 EDTA solution per mL of blood). Plasma was separated by centrifuging the whole blood at about 2500 g for 10 minutes at 4° C. Separated plasma was stored below −70° C. until analysis.
A fit for purpose LC-MS/MS method was used for the determination of the metaxalone concentrations in the plasma samples. Pharmacokinetic parameters from individual samples were calculated using the non-compartmental analysis tool of the WinNonlin® software (version 5.2). The area under the plasma concentration curve (AUC) was calculated using the linear trapezoidal rule. Peak plasma concentration (Cmax) and the time taken to reach the peak plasma concentration (Tmax) were the observed values.

For data set [2] the following is noted: presence of food at the time of drug administration compared to fasted conditions; cited from earlier work.
For data set [3] the following is noted: cited from earlier work.

The structures appear in SMILES notation. Like-named read-outs stand apart in the source and are kept apart here.

With `Cc1cc(C)cc(OCC2CNC(=O)O2)c1.Cc1cc(C)cc(OCC2CNC(=O)O2)c1.O=C(O)C=CC(=O)O` (stereo not shown) [1:0.5 Metaxalone Fumaric Acid Cocrystal], in data set [1], the time to peak (Tmax) amounted to 1.1 h, the Cmax is listed as 3635.39 ng/mL and the AUC was found to be 5202.44 ng·h/mL.

For the compound `Cc1cc(C)cc(OCC2CNC(=O)O2)c1` (stereo not shown) [Metaxalone, 5-[(3,5-dimethylphenoxy)methyl]-2-oxazolidinone], in data set [2], the “Increase of AUC(inf) by food” value is 115.4%, the “Increase of AUC(last) by food” value is on record as 123.5% and the “Increase of C(max) by food” value is 177.5%. Besides, in data set [1] (dog, read-out: Cmax), the Cmax was 1910 ng/mL. Besides, the AUC in data set [1] (dog, read-out: AUC) is 2380 ng·h/mL. Moreover, the time to peak (Tmax) in data set [1] (dog, read-out: Tmax) was 0.9 h. In addition, in data set [3] (96% ethanol), the “Solubility in 96% ethanol” value is “soluble”. In addition, in data set [3] (chloroform), the Solubility in chloroform result was “freely soluble”. Also, the Solubility in methanol entry in data set [3] (methanol) is listed as “soluble”. In addition, in data set [3] (water), the Solubility in water entry is “practically insoluble”.

`Cc1cc(C)cc(OCC2CNC(=O)O2)c1.Cc1cc(C)cc(OCC2CNC(=O)O2)c1.O=C(O)CCC(=O)O` (stereo not shown) [1:0.5 Metaxalone Succinic Acid Cocrystal]: in data set [1], the Tmax is given as 1.8 h, the peak concentration (Cmax) stood at 2629.8 ng/mL and the AUC came to 4134.85 ng·h/mL.
